The results in this text go back to patent publication US9936701B2, “Herbicidal compounds” (Syngenta Participations AG, priority 2013, dated 2018).

The subject of series [1] is a variety of test species. Description: Post-emergence herbicidal activity (glasshouse, sprayed after 8 days cultivation, evaluated after 13 days). Type of series: in vivo. On the set-up: key: 5=total damage to plant; 0=no damage to plant. To be noted: rate 1000 g/Ha, scale 0-5. The procedure, abridged:
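Seeds were sown in standard soil and cultivated for 8 days under controlled glasshouse conditions. Seedlings were then sprayed with an aqueous solution of the formulated compound containing 0.5% Tween 20. Injury was rated after a further 13 days, where 5 indicated total damage.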

Series [2] relates to a variety of test species. Description: Pre-emergence herbicidal activity (glasshouse, sprayed one day after sowing, evaluated after 13 days). Format: in vivo. Also on record: key: 5=total damage to plant; 0=no damage to plant. To be noted: application pre-emergence, rate 1000 g/Ha, scale 0-5. In short, it runs like this: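 Visual 0–5 injury score (5 = total damage) taken 13 days after spraying. Treatment applied one day after sowing, before emergence; glasshouse at 24/16 °C day/night, 14 h photoperiod, 65% humidity.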

In turn, `CC1=C(Cl)C(=O)N(c2cc(C(C)(C)C)on2)C1OC(=O)Oc1ccccc1` (stereo not shown) [A84] showed a melting point of 113 to 127 °C. In series [1], the “ABUTH (Abutilon theophrasti) damage score, application post-emergence” value (“ABUTH … application post-emergence” for short) was found to be 5; the “ALOMY (Alopecurus myosuroides) damage score, application post-emergence” value (“ALOMY … application post-emergence” for short) came out at 5; the “AMARE (Amaranthus retroflexus) damage score, application post-emergence” value (shortened to “AMARE … application post-emergence”) is recorded as 5; the “ECHCG (Echinochloa crus-galli) damage score, application post-emergence” value (“ECHCG … application post-emergence” below) is given as 5. Besides, in series [1], the “SETFA (Setaria faberi) damage score, application post-emergence” value (from here on “SETFA (Setaria faberi) damage score”) is recorded as 5 and the “ZEAMX (Zea mays) damage score, application post-emergence” value (“ZEAMX (Zea mays) damage score” for short) turned out to be 3. In addition, in series [2], the “Pre-emergence herbicidal damage score, ABUTH” value is listed as 5; the “Pre-emergence herbicidal damage score, ALOMY” value worked out at 4; the “Pre-emergence herbicidal damage score, AMARE” value was 5; the “Pre-emergence herbicidal damage score, ECHCG” value is given as 5. Also, in series [2], the “Pre-emergence herbicidal damage score, SETFA” value is reported as 5 and the “Pre-emergence herbicidal damage score, ZEAMX” value was found to be 3.
In turn, `COC1=C(C)C(O)N(c2noc(C(C)(C)C)c2C#N)C1=O` (stereo not shown) [D2, 5-tert-butyl-3-(2-hydroxy-4-methoxy-3-methyl-5-oxo-2H-pyrrol-1-yl)isoxazole-4-carbonitrile] displayed a melting point of 98 to 100 °C. In series [1], the “ABUTH … application post-emergence” value came out at 5; the “ALOMY … application post-emergence” value was found to be 5; the “AMARE … application post-emergence” value came out at 5; the “ECHCG … application post-emergence” value was 5. Further, in series [1], the “SETFA (Setaria faberi) damage score” value is on record as 5 and the “ZEAMX (Zea mays) damage score” value was found to be 4. In series [2], the “Pre-emergence herbicidal damage score, ABUTH” value was 5; the “Pre-emergence herbicidal damage score, ALOMY” value was found to be 3; the “Pre-emergence herbicidal damage score, AMARE” value is on record as 5; the “Pre-emergence herbicidal damage score, ECHCG” value worked out at 4. Moreover, in series [2], the “Pre-emergence herbicidal damage score, SETFA” value stood at 5 and the “Pre-emergence herbicidal damage score, ZEAMX” value is recorded as 3.
Turning to `CC(=O)OC1C(C)=C(Cl)C(=O)N1c1noc(C(C)(C)C)c1C#N` (stereo not shown) [A94, [1-(5-tert-butyl-4-cyano-isoxazol-3-yl)-4-chloro-3-methyl-5-oxo-2H-pyrrol-2-yl]acetate], the melting point fell in the range of 130 to 132 °C. Moreover, in series [1], the “ABUTH … application post-emergence” value stood at 5; the “ALOMY … application post-emergence” value worked out at 5; the “AMARE … application post-emergence” value was 5; the “ECHCG … application post-emergence” value is given as 5. For the same compound, in series [1], the “SETFA (Setaria faberi) damage score” value is listed as 5 and the “ZEAMX (Zea mays) damage score” value turned out to be 4. Moreover, in series [2], the “Pre-emergence herbicidal damage score, ABUTH” value is 5; the “Pre-emergence herbicidal damage score, ALOMY” value came to 4; the “Pre-emergence herbicidal damage score, AMARE” value stood at 5; the “Pre-emergence herbicidal damage score, ECHCG” value turned out to be 5. In series [2], the “Pre-emergence herbicidal damage score, SETFA” value was determined as 5 and the “Pre-emergence herbicidal damage score, ZEAMX” value is on record as 3.
`CC1=C(Cl)C(=O)N(c2noc(C(C)(C)C)c2Cl)C1O` (stereo not shown) [A24]: the melting point is 143 to 145 °C. For the same compound, in series [1], the “ABUTH … application post-emergence” value was found to be 5; the “ALOMY … application post-emergence” value is 5; the “AMARE … application post-emergence” value is listed as 5; the “ECHCG … application post-emergence” value amounted to 5. Besides, in series [1], the “SETFA (Setaria faberi) damage score” value worked out at 5 and the “ZEAMX (Zea mays) damage score” value was determined as 4. Besides, in series [2], the “Pre-emergence herbicidal damage score, ABUTH” value was 5; the “Pre-emergence herbicidal damage score, ALOMY” value is 4; the “Pre-emergence herbicidal damage score, AMARE” value was found to be 4; the “Pre-emergence herbicidal damage score, ECHCG” value is recorded as 5. Besides, in series [2], the “Pre-emergence herbicidal damage score, SETFA” value is listed as 4 and the “Pre-emergence herbicidal damage score, ZEAMX” value stood at 2.
As for `CCC1=C(Cl)C(=O)N(c2noc(C(C)(C)C)c2C#N)C1O` (stereo not shown) [A58], the melting point is 134 to 136 °C. Further, in series [1], the “ABUTH … application post-emergence” value is recorded as 5; the “ALOMY … application post-emergence” value was 5; the “AMARE … application post-emergence” value is 5; the “ECHCG … application post-emergence” value worked out at 5. In addition, in series [1], the “SETFA (Setaria faberi) damage score” value came to 5 and the “ZEAMX (Zea mays) damage score” value was 5. In series [2], the “Pre-emergence herbicidal damage score, ABUTH” value is given as 5; the “Pre-emergence herbicidal damage score, ALOMY” value is 4; the “Pre-emergence herbicidal damage score, AMARE” value amounted to 5; the “Pre-emergence herbicidal damage score, ECHCG” value is 5. Further, in series [2], the “Pre-emergence herbicidal damage score, SETFA” value stood at 5 and the “Pre-emergence herbicidal damage score, ZEAMX” value is 4.
Take `CCCC1=C(Br)C(=O)N(c2cc(C(C)(C)C#N)on2)C1O` (stereo not shown) [A52]: the melting point lay in the range of 80 to 82 °C. Further, in series [1], the “ABUTH … application post-emergence” value amounted to 5; the “ALOMY … application post-emergence” value is recorded as 5; the “AMARE … application post-emergence” value was 5; the “ECHCG … application post-emergence” value turned out to be 5. Further, in series [1], the “SETFA (Setaria faberi) damage score” value was determined as 5 and the “ZEAMX (Zea mays) damage score” value stood at 5. In series [2], the “Pre-emergence herbicidal damage score, ABUTH” value turned out to be 5; the “Pre-emergence herbicidal damage score, ALOMY” value turned out to be 4; the “Pre-emergence herbicidal damage score, AMARE” value turned out to be 5; the “Pre-emergence herbicidal damage score, ECHCG” value is recorded as 5. In series [2], the “Pre-emergence herbicidal damage score, SETFA” value worked out at 5 and the “Pre-emergence herbicidal damage score, ZEAMX” value worked out at 4.
`CC1=C(Br)C(=O)N(c2cc(C(C)(C)C#N)on2)C1O` (stereo not shown) [A53] displayed a melting point of 138 to 140 °C. Moreover, in series [1], the “ABUTH … application post-emergence” value is 5; the “ALOMY … application post-emergence” value worked out at 5; the “AMARE … application post-emergence” value worked out at 5; the “ECHCG … application post-emergence” value was 5. Besides, in series [1], the “SETFA (Setaria faberi) damage score” value is given as 5 and the “ZEAMX (Zea mays) damage score” value stood at 5. Further, in series [2], the “Pre-emergence herbicidal damage score, ABUTH” value came out at 5; the “Pre-emergence herbicidal damage score, ALOMY” value worked out at 4; the “Pre-emergence herbicidal damage score, AMARE” value came to 5; the “Pre-emergence herbicidal damage score, ECHCG” value amounted to 5. Besides, in series [2], the “Pre-emergence herbicidal damage score, SETFA” value is reported as 5 and the “Pre-emergence herbicidal damage score, ZEAMX” value was 4.
For `CCC1=C(Br)C(=O)N(c2noc(C(C)C)c2C#N)C1O` (stereo not shown) [A62], the melting point was 106 to 108 °C. Also, in series [1], the “ABUTH … application post-emergence” value amounted to 5; the “ALOMY … application post-emergence” value came to 4; the “AMARE … application post-emergence” value is recorded as 5; the “ECHCG … application post-emergence” value amounted to 5. Moreover, in series [1], the “SETFA (Setaria faberi) damage score” value stood at 5 and the “ZEAMX (Zea mays) damage score” value is 3. Besides, in series [2], the “Pre-emergence herbicidal damage score, ABUTH” value was determined as 5; the “Pre-emergence herbicidal damage score, ALOMY” value is 3; the “Pre-emergence herbicidal damage score, AMARE” value stood at 5; the “Pre-emergence herbicidal damage score, ECHCG” value was 4. In addition, in series [2], the “Pre-emergence herbicidal damage score, SETFA” value turned out to be 5 and the “Pre-emergence herbicidal damage score, ZEAMX” value is reported as 3.
As to `CC(C)=CCCc1cc(N2C(=O)C(Cl)=C(C)C2O)no1` (stereo not shown) [A35], the melting point was 72 to 74 °C. In addition, in series [1], the “ABUTH … application post-emergence” value was 4; the “ALOMY … application post-emergence” value amounted to 1; the “AMARE … application post-emergence” value is recorded as 5; the “ECHCG … application post-emergence” value was 2. In addition, in series [1], the “SETFA (Setaria faberi) damage score” value is recorded as 0 and the “ZEAMX (Zea mays) damage score” value stood at 1. For the same compound, in series [2], the “Pre-emergence herbicidal damage score, ABUTH” value is 1; the “Pre-emergence herbicidal damage score, ALOMY” value came out at 1; the “Pre-emergence herbicidal damage score, AMARE” value is listed as 3; the “Pre-emergence herbicidal damage score, ECHCG” value is 0. Besides, in series [2], the “Pre-emergence herbicidal damage score, SETFA” value amounted to 0 and the “Pre-emergence herbicidal damage score, ZEAMX” value stood at 0.
`CCCC(C)(C)c1cc(N2C(=O)C(Cl)=C(C)C2O)no1` (stereo not shown) [A37] showed a melting point of 96 to 98 °C. In series [1], the “ABUTH … application post-emergence” value was 5; the “ALOMY … application post-emergence” value is given as 5; the “AMARE … application post-emergence” value is given as 5; the “ECHCG … application post-emergence” value is given as 5. In series [1], the “SETFA (Setaria faberi) damage score” value is 5 and the “ZEAMX (Zea mays) damage score” value was 3. In series [2], the “Pre-emergence herbicidal damage score, ABUTH” value was determined as 5; the “Pre-emergence herbicidal damage score, ALOMY” value is 4; the “Pre-emergence herbicidal damage score, AMARE” value was 5; the “Pre-emergence herbicidal damage score, ECHCG” value came out at 5. Further, in series [2], the “Pre-emergence herbicidal damage score, SETFA” value came to 4 and the “Pre-emergence herbicidal damage score, ZEAMX” value is given as 1.

As usually defined, the melting point is the temperature, or range, at which the solid turns liquid.
